The record followed here is patent US20050080140A1, “Method for treating or preventing inflammatory disorders” (AnGes MG, Inc., priority 2003, published 2005).

Series [1] concerns adhesion between human vascular endothelial cells and monocytic leukocyte U937 cells. Description: Adherence assay of U937 cells to endothelial monolayers. The series is classed as cell-based. The following applies: HUVEC, 24 h. The method, then:
HUVEC (2.5×10^4 cells/cm^2) were cultured in 12-well plates. After 24 h, confluent monolayers were used for adherence assays. Monolayers were preincubated in EGM-2 containing 2% FBS, 0 or 10 ng/ml TNF-α, 0 or 10 ng/ml IL-13 and 0 or 10 μM cPGI with or without anti-IL-13 monoclonal antibody (0.5 μg/ml) at 37° C. for 0 to 24 h. Human monocyte leukocyte U937 cells were cultured in RPMI 1640 (Gibco-Invitrogen) containing 10% FBS, 100 U/ml penicillin and […] streptomycin , labeled with 2.5 μM calcein-AM (Molecular Probes, Eugene, Oreg.) at room temperature for 45 min, washed and resuspended in serum-free EGM-2. The calcein-labeled U937 cells (8×10^4 cells/well) were added to pretreated endothelial cells and incubated with cPGI (0, 10 μM), recombinant IL-13 (0, 10 ng/ml) and anti-IL-13 monoclonal antibody (0, 0.5 μg/ml). U937 cells were allowed to adhere to pretreated endothelial cells for 30 min at 37° C. Adherence was assessed with a fluorescence image analyzer (FLA-2000; Fujifilm, Tokyo, Japan). Plates were scanned before and after washing for total and adherent cells, respectively, and relative adherence was calculated (fold of control).

For a further series, the system named is IL-13. Description: IL-13 ELISA of culture medium of human vascular endothelial cells. It is filed as cell-based. To be noted: HUVEC treated with TNF-α 0-10 ng/ml, 24 h, FIG. 4C. The method, then: (§1) Human vascular endothelial cells (1.2×10^4 cells/cm^2) were cultured in EGM-2 containing 2% FBS and several concentrations of cPGI with or without TNF-α for 24 h. Incubation media were collected and stored at −80° C. before assay. Amounts of IL-13 were measured with human IL-13 ELISA system (Amersham Pharmacia Biotech, Buckinghamshire, UK) and amounts of PGI2 were measured as the amounts of 6-keto-PGI1α, a stable metabolite of PGI2, with 6-keto-PGI1α ELISA kit (Cayman Chemical Co., Ann Arbor, Mich.) according to the manufacturers' instructions.
(§2) siRNA duplexes with the following sense and antisense sequences were made: PGIS1, 5′-[…]-3′ (SEQ ID NO: 12; sense) and 5′-[…]-3′ (SEQ ID NO: 13; antisense); PGIS2, 5′-[…]-3′ (SEQ ID NO: 14; sense) and 5′-[…]-3′ (SEQ ID NO: 15; antisense); PGIS3, 5′-[…]-3′ (SEQ ID NO: 16; sense) and 5′-[…] (SEQ ID NO: 17; antisense); and PGIS4, 5′-[…]-3′ (SEQ ID NO:, 18; sense) and 5′-[…]-3′ (SEQ ID NO: 19; antisense). siRNAs were synthesized and annealed by Dharmacon Research Inc. (Lafayette, CO). Control non-silencing siRNA, a duplex of sense (5′-UUCUCCGAACGUGUCACGUdTdT-3′; SEQ ID NO: 20) and antisense (5′-ACGUGACACGUUCGGAGAAdTdT-3′; SEQ ID NO: 21) sequences, was purchase from Qiagen (Valencia, Calif.). The cells were initially transfected with 200 pmol per well of the annealed RNA mixture or the same amount of control siRNA using LipofectAMINE2000 (Invitrogen), and 12 h later secondly transfected with the same amount of siRNAs using HVJ-liposome transfection kit (GenomeONE; Ishihara Sangyo, Osaka, Japan) according to the manufacturers' instructions. The cells were retransfected with the siRNAs every 3 days using LipofectAMINE2000 and HVJ-liposome, and used for analyses 10 days after transfection. Microsomal fractions of the cells were prepared and analyzed by immunoblotting with anti-PGIS P4 polyclonal antibody as described previously (Hatae et al., J. Biol. Chem. (2001) 276: 46260-7). The cells treated with siRNAs for 10 days were cultured in fresh EGM-2 containing 2% FBS and TNF-α (0, 10 ng/ml). with or without cPGI (10 μM) for 24 h. The incubation media were collected, and amounts of 6-keto-PGI1α or IL-13 were measured with ELISA kit.
For orientation: An ELISA detects its analyte on a solid surface through an enzyme-linked reagent.

The test system of the next series is PPRE (PPARδ activation). Description: PPREx3-luciferase reporter assay. It is filed as cell-based, human. The following applies: HUVEC treated with TNF-α 0-10 ng/ml, 24 h, FIG. 4B. How it is done: Primary cultured human umbilical vein endothelial cells (HUVEC) and human aortic endothelial cells (HAEC) were obtained from Kurabo Co. Ltd. (Tokyo, Japan) and were cultured in EGM-2 growth medium supplemented with 2% fetal bovine serum (FBS) and a mixture of growth factors according to the supplier's instructions. Total RNA from the cells in culture was prepared with Isogen (Nippon Gene, Tokyo, Japan). Human embryonic kidney HEK-293 cells were cultured in DMEM containing 10% FBS, 2 mM L-glutamine, 100 U/ml penicillin and […] streptomycin as described previously (Hatae et al., J. Biol. Chem. (2001) 276: 46260-7). […] HEK-293 cells were transfected with DNA using lipofectAMINE (Invitrogen, Carlsbad, Calif.) as described previously (Hatae et al., J. Biol. Chem. (2001) 276: 46260-7). Human vascular endothelial cells were transfected with TransIT LT-1 (PanVera Co., Madison, Wis.). Transfections were performed at a ratio of 1 μg of DNA to 3.0 μl of the reagents, and cells were incubated in serum-free EGM-2 at 37° C. for 5 h. Subsequently, cells were grown in fresh EGM-2 containing 2% FBS and a mixture of growth factors for 12 h before analysis. For reporter assay, human vascular endothelial cells (1.2×10^4 cells/cm^2) were cotransfected with 0.2 μg of the PPREx3-luciferase reporter vector and 0.1 μg of β-galactosidase expression vector by use of TransIT LT-1. After 17 h of transfection, cells were washed with PBS, incubated in EGM-2 containing 2% FBS and cPGI (0-100 μM) for 24 h at 37° C., and subjected to luciferase assay as described previously (Hatae et al., J. Biol. Chem. (2001) 276: 46260-7). The luciferase activity of the extract was normalized to β-galactosidase activity.
(In general: In a reporter assay the amount or activity of a reporter protein is the signal.)

Series [2] deals with endogenous PGI2 production. Description: PGI2 assay (6-keto-PGF1α ELISA). It is filed as cell-based, human. The following applies: HUVEC, TNF-α 0, 0.1, 1 or 10 ng/ml, 24 h, FIG. 4A. The method, then:
as §1
siRNA duplexes with the following sense and antisense sequences were made: PGIS1, 5′-[…]-3′ (SEQ ID NO: 12; sense) and 5′-[…]-3′ (SEQ ID NO: 13; antisense); PGIS2, 5′-[…]-3′ (SEQ ID NO: 14; sense) and 5′-[…]-3′ (SEQ ID NO: 15; antisense); PGIS3, 5′-[…]-3′ (SEQ ID NO: 16; sense) and 5′-[…] (SEQ ID NO: 17; antisense); and PGIS4, 5′-[…]-3′ (SEQ ID NO:, 18; sense) and 5′-[…]-3′ (SEQ ID NO: 19; antisense). siRNAs were synthesized and annealed by Dharmacon Research Inc. (Lafayette, CO). […] Microsomal fractions of the cells were prepared and analyzed by immunoblotting with anti-PGIS P4 polyclonal antibody as described previously (Hatae et al., J. Biol. Chem. (2001) 276: 46260-7). […] The incubation media were collected, and amounts of 6-keto-PGI1α or IL-13 were measured with ELISA kit.

Another series relates to COX-2 gene. Description: RT-PCR analysis of COX-2 mRNA. It is filed as cell-based, human. To be noted: HUVEC, combination of TNF-α (1 ng/ml) and IL-1β (20 ng/ml), FIG. 5. The method, then: For analysis of IL-13, human vascular endothelial cells (1.2×10^4 cells/cm^2) were stimulated with cPGI (10 μM) for 12 h, and total RNA was prepared from stimulated cells with Isogen (Nippon Gene). For analysis of COX-2, human vascular endothelial cells (1.2×10^4 cells/cm^2) were pretreated with TNF-α (1 ng/ml) and IL-1b (20 ng/ml) for 1 h, and then treated with cPGI (0, 10 μM), anti-human IL-13 monoclonal antibody (0, 0.5 μg/ml) and control IgG (0, 0.5 μg/ml) for 12 h to prepare total RNA. The total RNA (0.5 μg) was used for analysis by SuperScript RT-PCR system (Invitrogen) according to the manufacturer's instructions. The oligonucleotide primers used were IL-13-s (5′-[…]-3′ (SEQ ID NO: 6); sense) and IL-13-as (5′-[…]-3′ (SEQ ID NO: 7); antisense) for human IL-13, β-actin-s (5′-[…]-3′ (SEQ ID NO: 8); sense) and β-actin-as (5′-[…]-3′ (SEQ ID NO: 9); antisense) for human β-actin, and COX-2-s (5′-[…]-3′ (SEQ ID NO: 10); sense) and COX-2-as (5′-[…]-3′ (SEQ ID NO: 11); antisense) for human COX-2. For each PCR amplification, 1 μl of cDNA was used in a 50 μl reaction. Reverse transcription-PCR (RT-PCR) for β-actin (25 cycles) was used as an internal control for mRNA abundance. For IL-13 and COX-2 genes, the number of cycles ranged from 25 to 45. […] Samples were normalized based on equivalent expression of β-actin.

Another series relates to PGIS. Description: RNAi silencing of PGIS, immunoblotting with anti-PGIS antibody. The series is classed as cell-based, human. To be noted: HUVEC, siRNA treatment for 10 days, FIG. 6A.
Description: as §2, with “The cells were retransfected with the siRNAs every 3 days using LipofectAMINE2000 and HVJ-liposome, and used for analyses 10 days after transfection.” left out, “The cells treated with siRNAs for 10 days were cultured in fresh EGM-2 containing 2% FBS and TNF-α (0, 10 ng/ml). with or without cPGI (10 μM) for 24 h.” left out
(In general: Immunoblotting shows a protein as a band on a membrane.)

The test system of another series is HEK-293 cells. Description: cDNA microarray analysis of cells expressing intracellular PGI2 (PGISwt vs inactive PGISC441A). The following applies: ratio of PGISwt to PGISC441A, 36 h. It is filed as cell-based, human. The method, then: HEK-293 cells (1.2×10^4 cells/cm^2) were transfected with expression vector for PGISwt or PGISC441A using LipofectAMINE (Invitrogen) and maintained in DMEM containing 10% FBS, 2 mM L-glutamine, 100 U/ml penicillin and […] streptomycin for 36 h. Poly(A+) mRNA (1.5 μg) was prepared from3×10^6 cells using Isogen (Nippon Gene) and Oligotex-dT30 super mRNA purification kit (Takara, Tokyo, Japan). Samples were analyzed by gene expression microarray (GEM) DNA tip containing 9,182 human cDNA clones (HUMAN UniGEM V Ver2.0, IncyteGenomics, Palo Alto, Calif.). Conversion of poly(A+) mRNA to cDNA with incorporation of Cy3- or Cy5-labeled deoxynucleotide-triphosphates (dNTPs), hybridization to arrays coated on glass, quality control and normalization were performed by IncyteGenomics. All data analyses were performed using an average fold change of two assays, and data were expressed as the ratio of PGISwt to PGISC441A.
In order to identify the downstream mediators of intracellular PGI2-PPARδ signaling pathway, a cDNA microarray analysis of human cells expressing intracellular PGI2 was performed. Based on precious studies of the inventors (Hatae et al., J. Biol. Chem. (2001) 276: 46260-7), a human embryonic kidney cell line (HEK-293) transfected with the expression vector for wild-type PGIS (PGISwt) was used to achieve endogenous expression of intracellular PGI2.

On to IL-13: recombinant human IL-13, for which the “TNF-α-induced monocytic leukocyte-endothelial cell adhesion” value in series [1] (TNF-α 10 ng/ml plus antibody 0.5 μg/ml, cPGI 10 μM or IL-13 10 ng/ml, FIG. 4D lanes 3-5) is “inhibited”.

For the compound TNF-α, the “production of IL-13” value in the series on IL-13 is given as “increased”. In the series with PPRE (PPARδ activation), the “relative luciferase activity of reporter vector containing PPRE” value is recorded as “increased”. Also, in series [2], the “endogenous PGI2 production” value is on record as “significantly induced”. For the same compound, in series [1] (TNF-α 10 ng/ml alone, FIG. 4D lanes 1 and 2), the “adhesion between U937 cells and endothelial cells” value is listed as “increase adhesion”. The “expression of COX-2 mRNA” value with COX-2 gene is listed as “induced”.

As to “IL-1: Recombinant human IL-1β, proinflammatory cytokine”, the “expression of COX-2 mRNA” value in the series on COX-2 gene is recorded as “induced”.

As for “control siRNA: Control non-silencing siRNA duplex (SEQ ID NO: 20, 21) from Qiagen (chain 1 UUCUCCGAACGUGUCACGUNN; chain 2 ACGUGACACGUUCGGAGAANN; listed as RNA, chemistry not fully specified)”, the “endogenous expression of PGIS (Western analysis)” value in the series on PGIS was “no effect”.

Consider `CCCCC[C@H](O)/C=C/[C@@H]1[C@H]2C/C(=C/CCCC(=O)O)O[C@H]2C[C@H]1O` [PGI2, prostacyclin], for which, in the series with HEK-293 cells, the “Differential expression, IL-13 (NM_002188)” value is on record as “+11.0”; the “Differential expression, Sjogren syndrome antigen (BF897247)” value is “+2.8”; the “Differential expression, aldehyde dehydrogenase 1 family, member A1 (AI050734)” value is recorded as “+2.5”; the “Differential expression, butyrophilin, subfamily 3, member A2 (AA482308)” value is listed as “+2.7”. Further, in the series with HEK-293 cells, the “Differential expression, isopentenyl-diphosphate delta isomerase (BF698441)” value is “+2.9” and the “Differential expression, mal T-cell differentiation protein (NM_022439)” value is recorded as “+7.0 mal”.
